Results from PubChem BioAssay (NCI).
Values joined by “and” are separate entries in the source; they are usually repeats but may differ in a detail not shown here. Equal values may be shown once.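 Cultured in 96-well plates, cells were exposed to test compound for 48 hours across five concentrations. GI50 marks 50% less growth. At the TGI there is no net growth.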

Assays:
Test in all cases: inhibition of tumour cell growth, NCI panel, 48 h
SF-268 CNS = test system: SF-268 CNS
A549 NSCLC = test system: A549 NSCLC
SF-539 CNS = test system: SF-539 CNS
HCT-116 colon = test system: HCT-116 colon
M14 melanoma = test system: M14 melanoma
SK-MEL-5 melanoma = test system: SK-MEL-5 melanoma
A498 renal = test system: A498 renal
U251 CNS = test system: U251 CNS
HT29 colon = test system: HT29 colon
SNB-75 CNS = test system: SNB-75 CNS

Row | Compound | GI50 (SF-268 CNS) | TGI (SF-268 CNS) | GI50 (A549 NSCLC) | TGI (A549 NSCLC) | GI50 (SF-539 CNS) | TGI (SF-539 CNS) | GI50 (HCT-116 colon) | TGI (HCT-116 colon) | GI50 (M14 melanoma) | TGI (M14 melanoma) | GI50 (SK-MEL-5 melanoma) | TGI (SK-MEL-5 melanoma) | GI50 (A498 renal) | TGI (A498 renal) | GI50 (U251 CNS) | TGI (U251 CNS) | GI50 (HT29 colon) | GI50 (SNB-75 CNS) | TGI (SNB-75 CNS) | TGI (HT29 colon)
1 | COC(=O)[C@H](Cc1c[nH]c2ccccc12)NC(=O)[C@@H](OC)[C@@H]1Cc2cc3cc(OC4CC(OC5CC(O)C(O)C(C)O5)C(O)C(C)O4)c(C)c(O)c3c(O)c2C(=O)[C@H]1OC1CC(OC2CC(OC3CC(C)(O)C(O)C(C)O3)C(O)C(C)O2)C(O)C(C)O1 (some centres undefined) | 8.91 nM | 1780 nM | 8.73 nM | > 16500 nM | 5.46 nM | 24.4 nM | 5.37 nM | > 16500 nM | 16.9 nM | 127 nM | 6.21 nM | 30.8 nM | 5.17 nM | 24.9 nM | 6.42 nM | > 16500 nM | 6.11 nM | 4.65 nM | 24.4 nM | –
2 | c1cc2c(ncc3cscc32)s1 | – | > 100000 nM | – | > 100000 nM | – | > 100000 nM | – | > 31600 nM | – | > 100000 nM | – | > 100000 nM | – | > 100000 nM | – | > 100000 nM | – | – | > 100000 nM | > 100000 nM
3 | CCOC(=O)c1c(C)nc2c(c1N)/C(=C/c1ccc(OC)cc1)C(=O)N2Cc1ccc(F)cc1 | 285 nM | 1210 nM | 385 nM | 2390 nM | 189 nM | 457 nM | 134 nM | 360 nM | 191 nM | 443 nM | 333 nM | 1480 nM | 535 nM | 2600 nM | 197 nM | 508 nM | 171 nM | 1030 nM | 4830 nM | 587 nM
4 | NCCCn1c2c(c3ccc([N+](=O)[O-])cc3c1=O)C(=O)c1cc(Br)ccc1-2 | 3.58 nM | 142 nM | 89.7 nM | 245 nM | 13.2 nM and 10.9 nM | 69.9 nM and 47.2 nM | 185 nM and 48.4 nM | 348 nM and 207 nM | 185 nM | 435 nM and 165 nM | 26.5 nM and 33.8 nM | 150 nM and 251 nM | 2.31 nM | 62.8 nM | 20.2 nM | 111 nM and 14 nM | 5.56 nM | 2.81 nM | 29.8 nM | 134 nM
